# Experimental data taken from US9139532B2, “Pyrazolyl guanidine F1F0-atpase inhibitors and therapeutic uses thereof” (Lycera Corporation, priority 2010, dated 2015).
# Like-named read-outs stand apart in the source and are kept apart here.
# Key:
# [1] = target: T1, F1F0-ATPase (Bos taurus, UniProt P13621); experiment: Inhibition of F1F0-ATPase activity in synthesizing ATP; assay type: biochemical; conditions: inhibition of ATP synthesis by F1F0-ATPase; read-out: ATP Syn IC50
# T1 construct: from tissue
# [2] = tested on: Ramos cells; experiment: Cytotoxicity in Ramos cells; assay type: cell-based; conditions: cytotoxicity in Ramos cells, read-out: Ramos Cell EC50
Compound,IC50 [1],EC50 ([2]; Homo sapiens),EC50 [2]
"CC(C)CN/C(=N/C(=O)c1ccc(F)c(F)c1)Nc1cc(-c2ccc(CO)cc2)n[nH]1 [Compound A-570, (Z)-3,4-Difluoro-N-(((3-(4-(hydroxymethyl)phenyl)-1H-pyrazol-5-yl)amino)(isobutylamino)methylene)benzamide]",> 10 µM,> 10 µM,
O=C(/N=C(/NCc1ccc(F)c(Cl)c1)Nc1cc(C(F)(F)F)[nH]n1)c1ccc(C(F)(F)F)cc1 [Compound A-19],< 10 µM,< 10 µM,
CCOCC(C)NC(=NC(=O)c1ccc(F)cc1)Nc1cc(-c2ccc(F)cc2)n[nH]1 (stereo not drawn) [Compound A-269],< 10 µM,,< 10 µM
COc1cccc(C(=O)/N=C(/NCC(C)C)Nc2cc(-c3ccc(F)cc3)[nH]n2)c1 [Compound A-171],< 10 µM,,< 10 µM
N#Cc1cccc(C(=O)/N=C(\Nc2cc(-c3ccc(Cl)cc3)n[nH]2)NC2CCCC2)c1 [Compound A-302],< 10 µM,,< 10 µM
CC(C)(CO)N/C(=N/C(=O)c1ccc(F)cc1)Nc1cc(-c2ccc(F)cc2)n[nH]1 [Compound A-538],< 10 µM,> 10 µM,
CC(C)CN/C(=N/C(=O)c1ccc(Cl)c(F)c1)Nc1cc(-c2ccc(F)cc2)n[nH]1 [Compound A-220],< 10 µM,,< 10 µM
CC1(CNC(=NC(=O)c2ccc(F)c(F)c2)Nc2cc(-c3ccc(Cl)cc3)n[nH]2)CCCO1 (stereo not drawn) [Compound A-211],< 10 µM,> 10 µM,
O=C(/N=C(\Nc1cc(-c2ccc(Cl)cc2)n[nH]1)NC1CCCC1)c1cccc(F)c1 [Compound A-385],< 10 µM,,< 10 µM
O=C(N=C(Nc1cc(-c2ccc(F)cc2)n[nH]1)NC1CCC1)c1ccc(Cl)cc1 [Compound A-264],< 10 µM,< 10 µM,
CC(C)N/C(=N/C(=O)c1ccc(C(F)(F)F)cc1)Nc1cc(C(F)(F)F)n[nH]1 [Compound A-90],< 10 µM,< 10 µM,
C[C@@H](CO)N/C(=N/C(=O)c1ccc(F)cc1)Nc1cc(-c2ccc(F)cc2)n[nH]1 [Compound A-391],> 10 µM,,> 10 µM
COC[C@H](C)NC(=NC(=O)c1ccc(F)cc1)Nc1cc(-c2ccc(F)cc2)n[nH]1 [Compound A-533],< 10 µM,< 10 µM,
O=C(/N=C(/NCC(F)(F)F)Nc1cc(C(F)(F)F)[nH]n1)c1ccc(Cl)cc1 [Compound A-5],< 10 µM,< 10 µM,
COc1cccc(C(=O)/N=C(\Nc2cc(-c3ccc(F)cc3)[nH]n2)NC(C)C)c1 [Compound A-524],< 10 µM,,< 10 µM
Cc1cc(N/C(=N\C(=O)c2ccc(F)c(F)c2)NCCC(F)(F)F)n[nH]1 [Compound A-186],> 10 µM,,> 10 µM
O=C(/N=C(/Nc1cc(F)cc(Cl)c1)Nc1cc(-c2ccccc2)n[nH]1)c1ccc(Cl)c(F)c1 [Compound A-482],< 10 µM,,< 10 µM
O=C(/N=C(/Nc1cc(F)cc(Cl)c1)Nc1cc(C(F)F)[nH]n1)c1ccc(C(F)(F)F)cc1 [Compound A-60],< 10 µM,< 10 µM,
CC(C)(C)CN/C(=N/C(=O)c1cccc(C(F)(F)F)c1)Nc1cc(C(F)(F)F)[nH]n1 [Compound A-76],< 10 µM,< 10 µM,
CC(C)(C)CN/C(=N/C(=O)c1ccc(F)c(F)c1)Nc1cc(C(F)F)[nH]n1 [Compound A-88],< 10 µM,< 10 µM,
O=C(/N=C(/Nc1cc(F)cc(Cl)c1)Nc1cc(C2CC2)[nH]n1)c1ccc(Cl)c(F)c1 [Compound A-146],< 10 µM,,< 10 µM
N#CC1(N/C(=N/C(=O)c2ccc(Cl)c(F)c2)Nc2cc(-c3cc(F)cc(F)c3)n[nH]2)CC1 [Compound A-343],< 10 µM,> 10 µM,
O=C(N=C(Nc1cc(C(F)(F)F)n[nH]1)NC1CCCC1)c1ccc(F)cc1 [Compound A-548],< 10 µM,< 10 µM,
CCc1cc(C(=O)/N=C(\Nc2cc(-c3ccc(F)cc3)n[nH]2)NC(C)CC)ccn1 (stereo not drawn) [Compound A-174],< 10 µM,< 10 µM,
CC(C)(C)N/C(=N/C(=O)c1ccc(O)cc1)Nc1cc(-c2ccc(F)cc2)n[nH]1 [Compound A-509],< 10 µM,,< 10 µM
CC(C)(C)NC(=NC(=O)c1cccc(F)c1)Nc1cc(-c2ccc(Cl)cc2)n[nH]1 [Compound A-133],< 10 µM,< 10 µM,

Compound,IC50 [1],EC50 ([2]; Homo sapiens),EC50 [2]
CC(C)(C)NC(=NC(=O)c1ccc(Cl)cc1)Nc1cc(-c2cccc(Cl)c2)[nH]n1 [Compound A-131],< 10 µM,< 10 µM,
CC(C)(C)c1n[nH]c(NC(=NC(=O)c2ccc(C(F)(F)F)cc2)NCc2ccc(F)cc2Cl)c1F [Compound A-335],< 10 µM,< 10 µM,
O=C(/N=C(/Nc1cc(C(F)(F)F)n[nH]1)NC1CCS(=O)(=O)C1)c1ccc(Cl)c(F)c1 (stereo not drawn) [Compound A-121],< 10 µM,> 10 µM,
O=C(/N=C(\Nc1cc(C(F)(F)F)n[nH]1)NC1CCOCC1)c1ccc(Cl)c(F)c1 [Compound A-118],< 10 µM,< 10 µM,
CC(C)(C)N/C(=N/C(=O)c1ccc(Cl)c(F)c1)Nc1cc(C(F)F)[nH]n1 [Compound A-65],< 10 µM,< 10 µM,
CCOCC(C)NC(=NC(=O)c1cccc(F)c1)Nc1cc(-c2ccc(F)cc2)n[nH]1 (stereo not drawn) [Compound A-256],< 10 µM,,< 10 µM
"CC(C)(C)N/C(=N/C(=O)c1ccc(C(F)(F)F)cc1)Nc1cc(-c2cccc(O)c2)n[nH]1 [Compound A-564, (Z)—N-((tert-Butylamino)((3-(3-hydroxyphenyl)-1H-pyrazol-5-yl)amino)methylene)-4-(trifluoromethyl)benzamide]",< 10 µM,< 10 µM,
O=C(/N=C(/Nc1cc(F)cc(Cl)c1)Nc1cc(C(F)F)[nH]n1)c1ccc(F)c(F)c1 [Compound A-52],< 10 µM,< 10 µM,
CCC(CC)NC(=NC(=O)c1ccc(Cl)c(F)c1)Nc1cc(-c2cc(F)cc(F)c2)n[nH]1 [Compound A-350],< 10 µM,< 10 µM,
CC(C)(C)c1cc(N/C(=N\C(=O)c2ccc(Cl)cc2)NC(C2CC2)C2CC2)n[nH]1 [Compound A-15],< 10 µM,< 10 µM,
O=C(/N=C(/Nc1cc(F)cc(Cl)c1)Nc1cc(-c2ccc(F)cc2)[nH]n1)c1ccc(Cl)c(F)c1 [Compound A-145],< 10 µM,,< 10 µM
COC[C@H](C)N/C(=N/C(=O)c1ccc(OC)nc1)Nc1cc(-c2ccc(F)cc2)n[nH]1 [Compound A-493],< 10 µM,,< 10 µM
O=C(/N=C(/NCc1ccc(F)c(Cl)c1)Nc1cc(C(F)F)[nH]n1)c1ccc(Cl)cc1 [Compound A-56],< 10 µM,> 10 µM,
Cc1ccc(-c2cc(N/C(=N\C(=O)c3ccc(Cl)c(F)c3)Nc3cc(F)cc(Cl)c3)n[nH]2)cc1 [Compound A-150],< 10 µM,,< 10 µM
COc1ccc(C(=O)N=C(Nc2cc(-c3ccc(F)cc3)n[nH]2)NC2CCCC2)cc1 [Compound A-518],< 10 µM,< 10 µM,
COCC(C)NC(=NC(=O)c1ccc(F)c(F)c1)Nc1cc(-c2ccc(F)cc2)n[nH]1 (stereo not drawn) [Compound A-274],< 10 µM,,< 10 µM
COc1cccc(CN/C(=N/C(=O)c2cc(F)c(F)c(F)c2)Nc2cc(-c3ccc(F)cc3)[nH]n2)c1 [Compound A-396],< 10 µM,,< 10 µM
O=C(/N=C(/NCC(F)(F)F)Nc1cc(C(F)(F)F)n[nH]1)c1ccc(F)c(F)c1 [Compound A-11],< 10 µM,< 10 µM,
COc1ccc(-c2cc(N/C(=N\C(=O)c3ccc(C(F)(F)F)cc3)NC3CCCC3)[nH]n2)cc1F [Compound A-574],< 10 µM,,> 10 µM
O=C(N=C(Nc1cc(-c2cc(F)cc(F)c2)n[nH]1)NC1CCCC1)c1cccc(F)c1 [Compound A-369],< 10 µM,< 10 µM,
O=C(/N=C(\Nc1cc(-c2cc(F)cc(F)c2)n[nH]1)NC1CC1)c1ccc(F)c(F)c1 [Compound A-198],< 10 µM,,< 10 µM
O=C(/N=C(/Nc1cc(C(F)(F)F)n[nH]1)NC1CCCC1)c1ccc(C(F)(F)F)cc1 [Compound A-92],< 10 µM,< 10 µM,
O=C(/N=C(\Nc1cc(C(F)(F)F)[nH]n1)NC1CCCC1)c1cccc(C(F)(F)F)c1 [Compound A-75],< 10 µM,< 10 µM,
CC(C)(C)CN/C(=N/C(=O)c1ccc(F)c(F)c1)Nc1cc(C(F)(F)F)n[nH]1 [Compound A-43],< 10 µM,< 10 µM,
CC(C)(C)N/C(=N/C(=O)c1ccnc(N2CCCC2)c1)Nc1cc(-c2ccc(F)cc2)n[nH]1 [Compound A-487],< 10 µM,,< 10 µM
